Columns and labels:
UHRF1 mRNA = experiment: qRT-PCR of UHRF1 gene expression in MM cells; type: cell-based
Method: (§1) FIG. 1A-1F. Down regulation of UHRF1 transcription by IMiDs correlates with drug sensitivity of multiple myeloma. (1A) Volcano plot of protein expression changes determined by mass spectrometry in H929 cells at 24 hr of treatment with CC-220 (0.1 μM) or DMSO control. X axis, Log2fold change (FC); Y axis, significance,-log 10 [p-value]. […] (1B) Volcano plot of gene expression changes determined by Affymetrix microarray in H929 cells treated with POM (1 μM) or DMSO for 24 hr. X axis, Log2fold change (FC); Y axis, significance,-log 10 [p-value], n=2 technical replicates). […] (1C) Western blot analysis protein expression of UHRF1, Ikaros, Aiolos and ZFP91 in H929 cells treated with 1 μM POM for indicated time. (1D) qRT-PCR analysis of UHRF1 gene expression levels in cells as in (1C). Error bars represent the SEM from duplicate measurements. (1E) Western blot analysis protein expression of UHRF1 and indicated proteins in MM cells treated with DMSO (−) or 1 μM POM (+) for 3 days. GAPDH serves as a loading control. (1F) Thymidine incorporation of various MM cell lines treated with indicated dose of POM for 3 days. Error bars represent the SEM from technical replicates.
FIG. 2A-2E. UHRF1 expression is positively regulated by Ikaros and Aiolos in IMiDs sensitive MM cells. (2A) Western blot analysis protein expression of UHRF1, Ikaros, Aiolos, ZFP91 and Cereblon expression in control [shLuciferase (shLuc)] and cereblon knockdown (shCRBN) H929 cells treated with DMSO and 1 μM POM for 3 days. GAPDH, loading control. Arrow head, UHRF1. (2B) qRT-PCR analysis of UHRF1 gene expression levels in cells as in (2A). Data was normalized to ACTB. Error bars represent the SEM of technical duplicates. *** P<0.001 (Two-tailed unpaired Student's t-test). (2C) Western blot analysis protein expression of UHRF1, Ikaros and Aiolos in stably transduced H929 cells after Dox induction (0, 10, 50 or 100 ng/ml) for 3 days of non-target shRNA (shNT) or shRNAs targeting Ikaros (shIKZF1) or Aiolos (shIKZF3). (2D) qRT-PCR analysis of UHRF1 gene expression levels in cells as in (2C). Shown are cells induced with Dox (50 ng/ml) for 3 days. Data was normalized to GAPDH. Error bars represent the SEM of technical duplicates. *P<0.05, ** P<0.01, *** P<0.001, **** P<0.0001 (Two-tailed unpaired Student's t-test). (2E) ChIP-qPCR analysis of the occupancy Aiolos (upper panel) or H3K27ac (lower panel) occupancy at transcription star site (TSS), gene body (+7 kb) and gene end (GE) of UHRF1 gene in H929, MM1.S or RPMI 8226 cells treated with DMSO or 1 μM POM for 24 hr. ChIP with control rabbit IgG (IgG) serves as a negative control. Error bars represent the SEM of technical triplicates. * P<0.05, ** P<0.01, **** P<0.0001 (Two-tailed unpaired Student's t-test).
FIG. 6A-6D. […] (6A) Immunocytochemistry assay of UHRF1 in H929 cells treated with DMSO or 1 μM POM for 48 hrs. (6B) qRT-PCR analysis of UHRF1 gene expression levels in indicated MM cells treated with indicated doses of POM for 3 days. Data was normalized to ACTB. Error bars represent the SEM from duplicate measurements. * P<0.05, ** P<0.01, *** P<0.001, **** P<0.0001 (Two-tailed Student's t-test). […]
Total RNA was extracted by RNeasy Mini Kit (Qiagen) and reverse transcribed by iScrip cDNA Synthesis Kit (Bio-rad). Quantitative real-time PCR (qPCR) was conducted on a VillA 7 System using the Power SYBR Green PCR Master Mix (Applied Biosystems). Gene expression values were calculated by normalization to Actb using the comparative CT method.

IRF4 and c-Myc = experiment: Western blot of IRF4 and c-Myc in MM cells; type: cell-based; conditions: MM1.S, DF15 and U266 cells; 1 μM POM, 3 days
Method: as §1, with “(1F) Thymidine incorporation of various MM cell lines treated with indicated dose of POM for 3 days. Error bars represent the SEM from technical replicates.” left out
Cells were lysed with cell lysis buffer (50 mM TrisHCl pH7.4, 250 mM NaCl, 0.5% Triton X100, 10% glycerol) supplemented with protease inhibitor cocktail. […] The protein concentration was measured by a Bradford Protein Assay (Bio-Rad). […] Proteins of interested were detected incubation with primary antibodies listed below at 4° C. overnight. […]

Structure (SMILES): Nc1cccc2c1C(=O)N(C1CCC(=O)NC1=O)C2=O (centres unmarked) [POM, pomalidomide]
- UHRF1 mRNA (UHRF1 mRNA; H929, MM1.S and U266 cells, indicated doses of POM, 3 days): dose dependent downregulation
- time to profound reduction of UHRF1 mRNA level (UHRF1 mRNA; H929 cells, POM 1 μM, time course): up to 24 hours
- UHRF1 gene expression (UHRF1 mRNA; drug sensitive MM (FIG. 6 title)): downregulated
- downregulation of UHRF1 mRNA by POM under cereblon knockdown (UHRF1 mRNA; shCRBN vs shLuc H929 cells, 1 μM POM, 3 days): rescue
- IRF4 and c-Myc expression (IRF4 and c-Myc): downregulated

From US20260234630A1, “Methods for Treating Multiple Myeloma” (Celgene Corporation, priority 2022, published 2026)
